Assay results as given in patent publication US20240041042A1, “1-(PYRIDYL)-5-AZINYLPYRAZOLE DERIVATIVES, AND THEIR USE FOR CONTROL OF UNDESIRED PLANT GROWTH” (Bayer Aktiengesellschaft, priority 2020, published 2024).
Read-outs that look alike come from different tables or passages of the source.

What was measured:
Assay type in all cases: in vivo
[1] = test system: Verconica persica (VERPE); test: Post-emergence herbicidal action against VERPE
How it was run: (§1)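 Values are percent visual activity (0% like control, 100% plants dead) after about 3 weeks in the greenhouse. Treatment: post-emergence spray at one-leaf stage, 600 l/ha spray volume, 0.5% additive, doses 320 g/ha or lower.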

[2] = test system: Amaranthus retroflexus (AMARE); test: Post-emergence herbicidal action against AMARE; details: 320 g/ha, visual rating about 3 weeks after treatment
How it was run: as §1

[3] = test system: Triticum aestivum (TRZAS); details: crop plant compatibility, effect vs untreated controls
How it was run: (§2)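 Test crops were treated 2 to 3 weeks after sowing, once they reached one leaf, by spraying compound in water with 0.5% additive at 600 l/ha. Visual scoring compared them with untreated controls roughly 3 weeks on, and appendices a, b and c denote different doses.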

Oryza sativa (ORYSA) = details: crop plant compatibility, 80 g/ha, effect in comparison to untreated controls
How it was run: as §2

Setaria viridis (SETVI) [4] = test: Pre-emergence herbicidal action against SETVI; details: dosage 320 g/ha
How it was run: (§3)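 Herbicide applied to soil before seedling emergence, at 600 l/ha spray volume with 0.5% additive and rates up to 320 g/ha. Evaluation: visual percentage effect, about 3 weeks later, greenhouse-grown pots compared with untreated ones.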

[5] = test system: Alopecurus myosuroides (ALOMY); test: Pre-emergence herbicidal action against ALOMY; details: 320 g/ha; scored visually after about 3 weeks; 100% = plants have died
How it was run: as §3

[6] = test system: Matricaria inodora (MATIN); test: Pre-emergence herbicidal action against MATIN; details: dosage 320 g/ha
How it was run: as §3

Lolium rigidum (LOLRI) [7] = test: Pre-emergence herbicidal action against LOLRI; details: dosage 320 g/ha
How it was run: as §3

[8] = test system: Echinochloa crus-galli (ECHCG); test: Post-emergence herbicidal action against ECHCG; details: dosage 320 g/ha
How it was run: as §1

[9] = test system: Amaranthus retroflexus (AMARE); test: Pre-emergence herbicidal action against AMARE; details: visual scoring after about 3 weeks vs untreated controls
How it was run: as §3

Lolium rigidum (LOLRI) [10] = test: Post-emergence herbicidal action against LOLRI; details: dosage 320 g/ha
How it was run: as §1

[11] = test system: Polygonum convolvulus (POLCO); test: Pre-emergence herbicidal action against POLCO; details: dosage 320 g/ha
How it was run: as §3

Setaria viridis (SETVI) [12] = test: Post-emergence herbicidal action against SETVI; details: dosage 320 g/ha
How it was run: as §1

[13] = test system: Echinochloa crus-galli (ECHCG); test: Pre-emergence herbicidal action against ECHCG; details: dosage 320 g/ha
How it was run: as §3

[14] = test system: Pharbitis purpurea (PHBPU); test: Post-emergence herbicidal action against PHBPU
How it was run: as §1

[15] = test system: Matricaria inodora (MATIN); test: Post-emergence herbicidal action against MATIN; details: dosage 320 g/ha
How it was run: as §1

[16] = test system: Pharbitis purpurea (PHBPU); test: Pre-emergence herbicidal action against PHBPU; details: dosage 320 g/ha
How it was run: as §3

[17] = test system: Triticum aestivum (TRZAS); details: pre-emergence, crop plant compatibility, in comparison to untreated controls
How it was run: (§4)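 Scoring: visual, % of untreated control, about 3 weeks after a pre-emergence application to the soil surface. Application used WP or EC formulations diluted in water with 0.5% additive at 600 l/ha; dosage levels are marked by suffixes a, b and c.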

Zea mays (ZEAMX) [18] = details: crop plant compatibility, effect vs untreated controls
How it was run: as §2

[19] = test system: Polygonum convolvulus (POLCO); test: Post-emergence herbicidal action against POLCO
How it was run: as §1

Viola tricolor (VIOTR) = test: Post-emergence herbicidal action against VIOTR
How it was run: as §1

[20] = test system: Digitaria sanguinalis (DIGSA); test: Pre-emergence herbicidal action against DIGSA; details: dosage 320 g/ha
How it was run: as §3

Zea mays (ZEAMX) [21] = details: pre-emergence, crop plant compatibility, in comparison to untreated controls
How it was run: as §4

COC(=O)CCOC(=O)COc1nn(-c2cccc(C)n2)c(-c2ccc(F)nc2)c1Cl [Example I-276]
Post-emergence action against VERPE in % ([1]; 320 g/ha, VERPE): 90% | Post-emergence action against VERPE in % ([1]; dosage 80 g/ha): 80% | Post-emergence action against AMARE in % [2]: 90% | Post-emergence action against TRZAS in % ([3]; 80 g/ha): 0% | Post-emergence action against TRZAS in % ([3]; 320 g/ha): 20% | Post-emergence action against ORYSA in % (Oryza sativa (ORYSA)): 10% | Pre-emergence action against SETVI in % (Setaria viridis (SETVI) [4]): 90% | Pre-emergence action against ALOMY [5]: 80% | Pre-emergence action against MATIN in % [6]: 80% | Pre-emergence action against LOLRI in % (Lolium rigidum (LOLRI) [7]): 100% | Post-emergence action against ECHCG in % [8]: 80% | Pre-emergence action against AMARE in % ([9]; 320 g/ha): 90% | Post-emergence action against LOLRI in % (Lolium rigidum (LOLRI) [10]): 80% | Pre-emergence action against POLCO in % [11]: 80% | Post-emergence action against SETVI in % (Setaria viridis (SETVI) [12]): 90% | Pre-emergence action against ECHCG in % [13]: 90% | Post-emergence action against PHBPU in % ([14]; dosage 80 g/ha): 80% | Post-emergence action against PHBPU in % ([14]; dosage 320 g/ha): 90% | Post-emergence action against MATIN in % [15]: 80% | Pre-emergence action against PHBPU in % [16]: 80% | Pre-emergence action against TRZAS in % ([17]; 80 g/ha): 0% | Pre-emergence action against TRZAS in % ([17]; 320 g/ha): 0%

CCOC(=O)COc1nn(-c2ccccn2)c(-c2ccc(Cl)nc2)c1Br [Example I-239]
Post-emergence action against VERPE in % ([1]; 320 g/ha, VERPE): 80% | Post-emergence action against VERPE in % ([1]; dosage 80 g/ha): 80% | Post-emergence action against AMARE in % [2]: 80% | Post-emergence action against ZEAMX in % (Zea mays (ZEAMX) [18]; 80 g/ha): 0% | Post-emergence action against ZEAMX in % (Zea mays (ZEAMX) [18]; 320 g/ha): 20% | Post-emergence action against ORYSA in % (Oryza sativa (ORYSA)): 0% | Post-emergence action against POLCO in % ([19]; dosage 80 g/ha): 80% | Post-emergence action against POLCO in % ([19]; dosage 320 g/ha): 80% | Pre-emergence action against AMARE in % ([9]; 80 g/ha): 80% | Pre-emergence action against AMARE in % ([9]; 320 g/ha): 90% | Post-emergence action against PHBPU in % ([14]; dosage 80 g/ha): 80% | Post-emergence action against PHBPU in % ([14]; dosage 320 g/ha): 90% | Post-emergence action against MATIN in % [15]: 80% | Post-emergence action against VIOTR in % (Viola tricolor (VIOTR); 80 g/ha): 80% | Post-emergence action against VIOTR in % (Viola tricolor (VIOTR); 320 g/ha): 80% | Pre-emergence action against DIGSA in % [20]: 90% | Pre-emergence action against TRZAS in % ([17]; 80 g/ha): 20% | Pre-emergence action against ZEAMX in % (Zea mays (ZEAMX) [21]; 80 g/ha): 0% | Pre-emergence action against ZEAMX in % (Zea mays (ZEAMX) [21]; 320 g/ha): 20%
